Assay results as given in patent US6921811B2, “Bioactive coating composition and methods” (BioSurface Engineering Technologies, Inc., priority 1998, dated 2005).
Marks after values point to notes of the source that are not given here. One block for each substance: values may come before it.

What was measured:
[1] = test system: Bovine aorta endothelial cells; assay: Capillary tube formation on coated low attachment wells; type: cell-based; conditions: 5×10^3 cells per well; DMEM containing 10% FBS; 4 days; phase contrast microscopy
Description: Low attachment 96 well plates were coated with saline, silyl-heparin complex, silyl-heparin-fibrinogen complex or silyl-heparin-bFGF complex. Bovine aorta endothelial cells (5×10^3 cells) were seeded into each well in DMEM containing 10% FBS. The cells were allowed to grow for 4 days and the cultures examined by phase contrast microscopy.

[2] = test system: C3H10T1/2 cells; assay: Attachment of C3H10T1/2 cells to silyl-heparin coated wells complexed with adhesive molecules, crystal violet; type: cell-based, murine; design: unit not given here; conditions: after two hours; hydrogel-polystyrene 96-well plates coated with silyl-heparin complexes and the listed adhesive molecule; proteins 100 μg/ml, serum undiluted
Description: Attachment of C3H10T1/2 cells after two hours to wells of 96-well, hydrogel-polystyrene plates coated with silyl-heparin complexes and the listed adhesive molecule was detected by staining with crystal violet. All proteins were used at a concentration of 100 μg/ml in buffered saline. Serum was used without dilution. Statistical significance was assessed relative to the values from buffered saline using Student's t-test, with * indicating p<0.05, ** indicating p<0.01 and *** indicating p<0.001.

[3] = molecular target: T1, bFGF (Homo sapiens, UniProt P09038); assay: Effect of adhesive molecules complexed to silyl-heparin on subsequent bFGF binding; conditions: adhesive molecule complexed to silyl-heparin at 100 μg/mL before bFGF
T1 construct: purchased Sigma Chemical Co
Description: Wells of 96 well polystyrene microtiter plates, with a well surface area of 0.32 cm^2, were coated with 30 μl of silyl heparin for 15 minutes at 37° C. After rinsing and air-drying, bFGF (Sigma Chemical Co.) in PBS/BSA was added in 150 μL aliquots in doubling dilutions. The plate was incubated at 37° C. for 1 hour and rinsed 5 times in PBS. An aliquot 150 μl of PBS/BSA containing 1:500 rabbit anti-FGF antibodies were added, incubated for 1 hour and rinsed. In some cases an irrelevant rabbit antibody was used at a similar concentration (rabbit anti-TGF-receptor II, Santa Cruz Biotechnology). An aliquot of PBS/BSA containing 1:500 HRPO-conjugated donkey anti-rabbit IgG added, and after incubation and rinsing ABTS-chromogen added. All antibody solutions were filtered through 0.2 micron filters prior to use. The absorbance was monitored at 405 nm. […] When anti-TGF-II (irrelevant antibody directed against the transforming growth factor receptor) was used instead of anti-FGF and at the same anti-dilutions, no bFGF was detected. When TGF-β, at a concentration of 40 ng was used as the growth factor molecule, no activity was detected with anti-bFGF antibodies.
Murine type IV collagen, human fibrinogen and bovine fibronectin isolated from plasma were bound to silyl-heparin complexes bound to wells of polystyrene microtiter plates, at a concentration of 100 μg/mL in PBS/BSA. […]

[4] = test system: C3H10T1/2 cells; assay: C3H10T1/2 cell attachment to a variety of coated substrates; type: cell-based, murine
Description: (§1) The cells were examined after plating using an inverted, phase-contrast microscope. At selected time points up to 4 days after initial seeding, the cells were rinsed three times in saline and fixed in buffered 10% formalin or 35% ethanol. In some cases, the cells were stained in situ with a 0.01 % aqueous solution of crystal violet. The amount of attachment was scored visually or quantitated. To establish the relative number of cells bound, crystal violet stained cells were dissolved in a solution of 70% ethanol containing 0.1% sodium dodecyl sulfate and 0.38 M Tris and the absorbance monitored at 610 nm, using the methods of Scragg and Ferreira (Anal Biochem 198:80-5, 1991) and Grando et al. (Skin Pharmacol 6:135-47, 1993).
The general applicability of silyl-heparin-fibronectin complex was evaluated by applying this coating using the methods of Examples 4 and 5 to a variety of surfaces, including polystyrene, polylactide:polyglycolide, polycaprolactone, polyurethane and stainless steel. […] They did, however, bind moderately well to polylactide:polyglycolide and to polycaprolactone, and very well to stainless steel.

[5] = test system: GS-9L cells (rat gliosarcoma); assay: Cell attachment, spreading and growth on coated low-attachment polystyrene wells; type: cell-based; conditions: 10^4 cells/well, serum-containing medium
Excerpt: (§2) Several cell types were used, including GS-9L cells (rat gliosarcoma), C3H10T1/2 (murine fibroblasts), Jurkat (human T cell), bovine aorta endothelial (BAE) cells and rat lymphocytes. GS-9L and C3H10T1/2 cells were maintained in log phase growth and detached from cultureware using Versene and collected by centrifugation. Jurkat cells grew as single cell suspensions and were collected by centrifugation. Rat lymphocytes were collected from heparinized blood by density gradient isolation over Ficoll-Hypaque® media. The collected cells were rinsed once by low speed centrifugation and suspended in either serum-free Dulbecco's Modified Eagles Medium (DMEM) containing pyruvate or RPMI 1640 containing 10% fetal bovine serum (FBS) supplemented with pyruvate. Aliquots of 10^4 cells in 100 μL were used in subsequent adhesion studies.
as §1
(§3) The cells of Example 7 were added to untreated polystyrene wells, wells coated with silyl-heparin as in Example 4, with silyl-heparin-fibronectin as in Example 5, and with only fibronectin by incubation as described in Example 5. […] Cells were seeded at a concentration of 10^4 cells/well in serum-containing medium.
The cells grew to confluency by 4 days. […] No effort was made to grow the cells in a defined- or serum-low medium known to support growth.

[6] = affinity binding of fibronectin to heparin; cited from earlier work
[7] = test system: C3H10T1/2 (murine fibroblasts); assay: Cell attachment, spreading and growth on coated low-attachment polystyrene wells; type: cell-based
Excerpt: as §2, §1, §3
The cells grew to confluency by 4 days. […] No effort was made to grow the cells in a defined- or serum-low medium known to support growth. […]

[8] = test system: C3H10T1/2 cells; assay: Cross-titration of fibronectin and silyl-heparin needed to support cell attachment; type: cell-based, murine; conditions: fibronectin titrated from 4 μg/well on silyl-heparin applied at 30 μg/well; 24 hours; crystal violet, 610 nm
Description: The optimal amount of fibronectin and silyl-heparin to support attachment of C3H10T1/2 cells was determined by cross-titration, as shown on FIG. 1. […] The fall-off for the silyl-heparin was more gradual. The curve of the relative amount of silyl-heparin on the substrate following serial dilution generally followed the cell attachment curve.
In FIG. 1, fibronectin (Δ—Δ) or silyl-heparin (•—•) were titrated to determine the quantity needed to support attachment of C3H10T1/2 cells. All dilutions were performed in quadruplicate in wells of 96-well plates of low-attachment polystyrene. For titration of fibronectin, silyl-heparin was applied at 30 μg/well in 70% ethanol as in Example 4. After rinsing, fibronectin was applied in doubling dilutions of phosphate buffered saline starting from 4 μg/well. For titration of silyl-heparin, silyl-heparin was applied in doubling dilutions in 70% ethanol starting from silyl-heparin concentrations of 30 μg/well. Fibronectin was then applied in saline at 4 μg/well. Cells were at a concentration of 10^4 cells/well in growth medium. For both experiments, the cells were allowed 24 hours to attach and then were rinsed and fixed in buffered formalin. The cells were stained for 5 minutes with 0.01% aqueous crystal violet and the absorbance at 610 nm determined.

T1 sequence (P09038 143-288, species assumed): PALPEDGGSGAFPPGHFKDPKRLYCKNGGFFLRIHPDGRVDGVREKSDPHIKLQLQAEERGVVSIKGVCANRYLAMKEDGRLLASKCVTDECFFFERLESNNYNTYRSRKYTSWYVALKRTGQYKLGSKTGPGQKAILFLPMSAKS

Substance: bFGF: basic fibroblast growth factor (Sigma Chemical Co.)
capillary tube formation [1]: Tubes did not form

effect on binding of bFGF to the silyl-heparin-adhesive molecule complex [3]: less significant decrease in binding
Substance: fibrinogen
attachment of C3H10T1/2 cells by crystal violet staining, Average ± S.E. [2]: 1.63 ± 0.17**
capillary tube formation [1]: Tubes did not form

EC50 to support attachment of C3H10T1/2 cells [8]: approximately 0.5 μg/well
Substance: fibronectin: bovine plasma fibronectin, adhesive molecule
attachment of C3H10T1/2 cells by crystal violet staining, Average ± S.E. [2]: 1.00 ± 0.10**
C3H10T1/2 CELL ATTACHMENT ([4]; surface: Polyactide:polyglycolide): improve the attachment of cells
C3H10T1/2 CELL ATTACHMENT ([4]; surface: Polystyrene): did not significantly support cell attachment
C3H10T1/2 CELL ATTACHMENT ([4]; surface: Polyurethane): improve the attachment of cells
effect on binding of bFGF to the silyl-heparin-adhesive molecule complex [3]: significantly decreased the binding of bFGF
CELL ATTACHMENT [5]: isolated C3H10T1/2 cells and isolated GS-9L cells were found attached
affinity constant [6]: approximately 10^8 M/L
CELL ATTACHMENT ([7]; C3H10T1/2, coated low-attachment polystyrene wells, 10^4 cells/well, serum-containing medium): isolated C3H10T1/2 cells and isolated GS-9L cells were found attached

Substance: gelatin
attachment of C3H10T1/2 cells by crystal violet staining, Average ± S.E. [2]: 0.15 ± 0.05

Substance: heparin [reference compound]
effect of coating or treatment on C3H10T1/2 cell attachment ([4]; regardless of the substrate): did not inhibit attachment
effect of heparin added to the medium on attachment or growth of cells ([7]; up to 10 U of heparin, C3H10T1/2 plated onto silyl-heparin-fibronectin coated plates): did not inhibit the attachment or growth

Substance: poly-l-lysine [reference compound]
attachment of C3H10T1/2 cells by crystal violet staining, Average ± S.E. [2]: 1.18 ± 0.06***

Substance: poly-l-ornithine [reference compound]
attachment of C3H10T1/2 cells by crystal violet staining, Average ± S.E. [2]: 0.92 ± 0.28*

Substance: transferrin: protein used at 100 μg/ml on silyl-heparin coated wells
attachment of C3H10T1/2 cells by crystal violet staining, Average ± S.E. [2]: 0.15 ± 0.03
